The source of these data is US5962466A, “Reduction of hair growth using inhibitors of matrix metalloproteinases” (priority 1998, dated 1999).

Experiment [1] concerns the target T1, MMP-2 (72 kD collagenase) (Mesocricetus auratus, UniProt A0A1U7R1N2).
T1 construct: Flank organ hair follicles were removed from untreated hamsters and homogenized in a buffer; from tissue; host or cells: hamster flank organ hair follicle homogenate
Put plainly: Zymographic assay of MMP-2 in flank organ hair follicle homogenates. To be noted: read-out: Percent Inhibition of Flank Organ MMP-2 Collagenase Activity. Format: biochemical, hamster. As for the experimental part: (§1) The matrix metalloproteinases MMP-2 (72 kD collagenase) and MMP-9 (92 kD collagenase) were assayed in flank organ hair follicle homogenates using a zymographic assay. Zymography is an electrophoretic technique used to identify proteolytic activity in enzymes separated in polyacrylamide gels under nondenaturing conditions (Kleiner and Stetler-Stevenson, Analytical Biochemistry 218: 325-329, 1994). Flank organ hair follicles were removed from untreated hamsters and homogenized in a buffer containing 25 mM Tris, pH 7.5, and 50 mM sucrose. Samples of the homogenate were added to an equal volume of zymogram sample buffer containing 63 mM Tris-HCl, pH 6.8, 10% glycerol, 2% SDS, and 0.0025% bromophenol blue. (Note: all buffers and acrylamide gels were obtained from Novex, San Diego, Calif.). The samples were incubated for 10 minutes at room temperature and then loaded onto a precast 10% Tris-Glycine gel with 0.1% gelatin incorporated throughout the gel. The gel was electrophoresed at 125 constant volts for about 90 minutes. The gel was incubated for 30 minutes in renaturing buffer consisting of 2.5% triton X-100 followed by incubation in developing buffer which contained 10 mM Tris-base, 40 mM Tris-HCl, 200 mM NaCl, 5 mM CaCl2, and 0.02% Brij 35. The developing buffer was decanted after 30 minutes and replaced with fresh buffer for incubation overnight.
(§2) For inhibition experiments, the inhibitor was included in the renaturing and development buffer steps. The gel was stained with Coomassie blue 0.25% for 1 hour and then destained overnight. Transparent bands were visualized against a blue background. MMP-2 and MMP-9 standards were supplied by Oncologix (Gaithersburg, Md.). The relative degree of digestion, representing collagenase activity, was quantitated by scanning photographs of the gels using Adobe Photoshop (Adobe Systems Inc., Mountain View, Calif.) and IPLab Gel (Signal Analytics, Vienna, Va.) software. The images were digitally inverted so that the integrations of bands would be reported as positive values. This method of analysis was standardized with respect to protein concentration.

The target in experiment [2] is T2, MMP-9 (92 kD collagenase) (Mesocricetus auratus, UniProt A0A1U7R3J7).
T2 construct: Flank organ hair follicles were removed from untreated hamsters and homogenized in a buffer; from tissue; host or cells: hamster flank organ hair follicle homogenate
T2 sequence (A0A1U7R3J7 20-718): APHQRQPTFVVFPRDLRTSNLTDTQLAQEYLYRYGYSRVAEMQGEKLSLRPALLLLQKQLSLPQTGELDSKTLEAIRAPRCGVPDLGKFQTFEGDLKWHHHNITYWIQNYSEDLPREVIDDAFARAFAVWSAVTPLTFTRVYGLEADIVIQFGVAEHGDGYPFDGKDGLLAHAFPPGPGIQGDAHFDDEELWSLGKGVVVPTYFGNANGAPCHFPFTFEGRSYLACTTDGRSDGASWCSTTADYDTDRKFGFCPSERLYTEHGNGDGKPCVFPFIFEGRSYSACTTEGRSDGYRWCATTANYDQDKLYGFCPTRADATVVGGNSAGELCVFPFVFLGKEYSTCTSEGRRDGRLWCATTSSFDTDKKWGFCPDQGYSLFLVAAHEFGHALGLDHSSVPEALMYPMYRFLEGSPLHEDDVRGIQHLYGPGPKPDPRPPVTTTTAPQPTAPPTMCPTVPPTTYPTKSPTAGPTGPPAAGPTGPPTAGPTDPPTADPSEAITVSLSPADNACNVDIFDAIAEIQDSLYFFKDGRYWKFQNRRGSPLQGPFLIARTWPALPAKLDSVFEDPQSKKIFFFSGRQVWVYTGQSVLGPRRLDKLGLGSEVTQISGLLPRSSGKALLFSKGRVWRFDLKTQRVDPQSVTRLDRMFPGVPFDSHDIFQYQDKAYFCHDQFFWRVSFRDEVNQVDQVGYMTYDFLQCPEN
Put plainly: Zymographic assay of MMP-9 in flank organ hair follicle homogenates. Format: biochemical, hamster. The following applies: read-out: Percent Inhibition of Flank Organ MMP-9 Collagenase Activity. As for the experimental part:
as §1, §2

The next experiment relates to flank organ hair growth. The experiment is described as follows: Golden Syrian hamster assay (flank organ hair mass). To be noted: topical, 13 applications. Format: in vivo. An excerpt: Male intact Golden Syrian hamsters are considered acceptable models for human beard hair growth in that they display oval shaped flank organs, one on each side, each about 8 mm. in major diameter, which grow thick black and coarse hair similar to human beard hair. These organs produce hair in response to androgens in the hamster. To evaluate the effectiveness of a composition including an inhibitor of an MMP, the flank organs of each of a group of hamsters are depilated by applying a thioglycolate based chemical depilatory (Surgex). To one organ of each animal 10 μl. of vehicle alone once a day is applied, while to the other organ of each animal an equal amount of vehicle containing an inhibitor of a matrix metalloproteinase is applied. After thirteen applications (one application per day for five days a week), the flank organs are shaved and the amount of recovered hair (hair mass) from each is weighed. Percent-reduction of hair growth is calculated by subtracting the hair mass (mg) value of the test compound treated side from the hair mass value of the vehicle treated side; the delta value obtained is then divided by the hair mass value of the vehicle treated side, and the resultant number is multiplied by 100.
The above-described assay will be referred to herein as the "Golden Syrian hamster" assay.

SMILES strings stand for the structures. Read-outs that look alike come from different tables or passages of the source.

T1 sequence (A0A1U7R1N2 30-662): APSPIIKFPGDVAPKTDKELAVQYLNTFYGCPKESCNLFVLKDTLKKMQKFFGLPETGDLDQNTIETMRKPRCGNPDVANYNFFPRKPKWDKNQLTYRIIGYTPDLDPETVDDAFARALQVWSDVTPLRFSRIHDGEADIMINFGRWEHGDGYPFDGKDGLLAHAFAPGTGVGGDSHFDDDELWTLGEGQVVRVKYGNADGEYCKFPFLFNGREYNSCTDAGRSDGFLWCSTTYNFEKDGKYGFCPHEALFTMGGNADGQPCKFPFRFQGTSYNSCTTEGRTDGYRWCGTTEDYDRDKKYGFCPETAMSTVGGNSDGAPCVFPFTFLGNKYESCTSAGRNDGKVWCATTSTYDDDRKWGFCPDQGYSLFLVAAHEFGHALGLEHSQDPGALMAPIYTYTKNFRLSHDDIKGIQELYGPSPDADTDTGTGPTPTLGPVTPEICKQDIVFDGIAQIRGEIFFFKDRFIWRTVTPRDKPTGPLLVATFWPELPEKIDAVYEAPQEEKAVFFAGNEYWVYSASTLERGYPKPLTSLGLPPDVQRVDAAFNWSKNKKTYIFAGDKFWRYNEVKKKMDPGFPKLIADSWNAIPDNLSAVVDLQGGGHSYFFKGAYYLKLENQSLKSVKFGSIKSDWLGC

As for `c1cnc2c(c1)ccc1cccnc12` [1,10-Phenanthroline, 1,10-phenanthroline], in experiment [1], the inhibition at 100 µM stood at 100% and the inhibition at 500 µM was 100%. In addition, the inhibition at 100 µM in experiment [2] (concentration 0.1 mM) was 100%. In addition, the inhibition at 500 µM in experiment [2] (concentration 0.5 mM) was 100%. Further, in the experiment with flank organ hair growth (dose 5%, Vehicle A, pH 7.0), the “% Reduction of hair mass” value is reported as 45 ± 9% and the “Hair Mass (mg) Treated” value was 1.40 ± .24 mg.

Take `C[C@H]1c2cccc(O)c2C(O)=C2C(=O)[C@]3(O)C(O)=C(C(N)=O)C(=O)[C@@H](N(C)C)[C@@H]3[C@@H](O)[C@@H]21` [Doxycycline, α-6-deoxy-5-hydroxytetracycline]: the inhibition at 100 µM in experiment [1] (concentration 0.1 mM) came out at 89%; in experiment [2] (concentration 0.1 mM), 28%. Further, the inhibition at 500 µM in experiment [1] (concentration 0.5 mM) and in experiment [2] (concentration 0.5 mM) was 100% each time. For the same molecule, in the experiment with flank organ hair growth (dose 10%, Vehicle A, pH 5.5), the “% Reduction of hair mass” value amounted to 27 ± 9%. For the same molecule, the “Hair Mass (mg) Treated” value in the experiment with flank organ hair growth (dose 10%, Vehicle A, pH 5.5) was 1.73 ± .22 mg.

Regarding `C=C1c2cccc(O)c2C(=O)C2=C(O)[C@]3(O)C(=O)C(C(N)=O)=C(O)[C@@H](N(C)C)[C@@H]3[C@@H](O)[C@H]12` [Methacycline, 6-methylene oxytetracycline], the inhibition at 1000 µM in experiment [1] (concentration 1 mM) was found to be 100%. The inhibition at 1000 µM in experiment [2] (concentration 1 mM) is 100%. Also, in the experiment with flank organ hair growth (dose 10%, Vehicle A, pH 4.0), the “% Reduction of hair mass” value came to 57 ± 9% and the “Hair Mass (mg) Treated” value was 0.68 ± .11 mg.

On to `CN(C)c1ccc(O)c2c1C[C@H]1C[C@H]3[C@H](N(C)C)C(O)=C(C(N)=O)C(=O)[C@@]3(O)C(O)=C1C2=O` [Minocycline, 7-dimethylamino-6-dimethyl-6-deoxytetracycline], for which, in experiment [1] (concentration 1 mM), the inhibition at 1000 µM was 100%. In addition, the inhibition at 1000 µM in experiment [2] (concentration 1 mM) amounted to 100%. For the same molecule, in the experiment on flank organ hair growth (dose 10%, Vehicle A, pH 4.0), the “% Reduction of hair mass” value was determined as 63 ± 6% and the “Hair Mass (mg) Treated” value is given as 0.82 ± .11 mg.

`O=Cc1ccc(O)c(O)c1` [Protocatechuic aldehyde, 3,4-dihydroxybenzaldehyde]: in the experiment with flank organ hair growth (dose 10%, Vehicle A, pH 3.5), the “% Reduction of hair mass” value was 32 ± 9% and the “Hair Mass (mg) Treated” value was 0.92 ± .13 mg.

Consider `CN(C)C1C(O)=C(C(N)=O)C(=O)C2(O)C(O)=C3C(=O)c4c(O)cccc4C(C)(O)C3CC12` (stereo not drawn) [Tetracycline, 4-(dimethylamino)-1,4,4a,5,5a,6,11,12a-octahydro-3,6,10,12,12a-pentahydroxy-6-methyl-1,11-dioxo-2-naphthacenecarboxamide], for which, in experiment [1], the inhibition at 100 µM came out at 31%, the inhibition at 500 µM was 64% and the inhibition at 1000 µM came to 100%. Moreover, in experiment [2], the inhibition at 100 µM turned out to be 49%, the inhibition at 500 µM is 70% and the inhibition at 1000 µM was 100%. In the experiment with flank organ hair growth (dose 10%, Vehicle B, pH 4.5), the “% Reduction of hair mass” value was 56 ± 9% and the “Hair Mass (mg) Treated” value is listed as 0.67 ± .10 mg.

What is called inhibition is the change of the read-out against control, counted positive when it falls.
